{"source": "patent US20180110754A1", "about": "“CENICRIVIROC FOR THE TREATMENT OF FIBROSIS” (Tobira Therapeutics, Inc., priority 2015, published 2018)", "key": {"[1]": {"test_system": "APAP-induced acute liver injury", "test": "Acetaminophen (APAP)-induced acute liver injury in mice", "assay_type": "in vivo, C57BL/6J mice", "protocol": "Methods: […] […] Liver injury and immune cell phenotypes were analyzed. For mechanistic studies, monocyte-derived macrophage subsets and resident macrophages (Kupffer cells) were sorted by FACS from injured livers and subjected to array-based Nanostring gene expression analysis. […] The human counterparts of both agents are currently tested in phase II trials for different indications (diabetic nephropathy or NASH, respectively)."}, "HIV-1 BaL": {"test_system": "HIV-1 BaL", "test": "Extracellular virus (viral RNA, p24) in culture fluids of PM-1 cells exposed to HIV-1 BaL", "assay_type": "cell-based", "details": "4 hrs post-infection, CVC 20 nM, MVC 50 nM", "from_the_text": "Cells. PM-1 cells that express CD4, CCR5, and CXCR4 were maintained in RPMI-1640 medium containing 10% fetal bovine serum (R10 medium) at 37C, 5% CO2. 293T cells used for transfection were maintained in DMEM at 10% FBS, L-glutamine, and antibiotics (D10 medium) at 37C, 5% CO2. Virus Stocks. HIV-1 BaL virus was produced by transfecting 293T cells with the plasmid pWT/BaL. Lipofectamine 2000 was used as a transfection agent. Culture supernatants were collected at 48 hrs post-transfection, filtered through a 0.45 μm pore filter, and treated with 50 units of benzonase per ml of virus stock for 20 minutes at 37C to remove contaminating plasmid DNA. Virus stocks were frozen at −80C to halt benzonase activity. Benzonase-treated virus stocks were propagated in cord blood mononuclear cells (CBMCs). CBMCs were stimulated for 72 h with phytohemagluttinin (PHA-M) in R10 medium prior to infection with HIV-1 BaL. The viral amplification culture was subsequently grown in R10 supplemented with interleukin 2 (IL-2) and incubated at 37C, 5% CO2.\nBoth drugs were incubated with PM-1 cells for 1 hr at 37 C prior to the addition of virus. 500 ng of p24 antigen of HIV-1 BaL were incubated per 5×10^5 cells in 1 ml of R10 media. Virus only controls, described as “no cell” in the text, were used to measure viral decay. Viral adsorption was measured in the no-drug controls, whereby 500 ng of p24 Ag of HIV-1 Bal were added per 5×10^5 PM-1 cells that were pre-incubated at 37 C for 1 hr in the absence of drug treatment. Each drug treatment and control was performed in duplicate. Viral RNA was extracted from 140 μl of supernatant fluid using the QIAamp Viral RNA mini kit according to manufacturer's instructions. Samples were stored at −80 C until analysis. Supernatant viral loads were measured using quantitative real-time reverse transcription PCR (qRT-PCR) with the primers US1SSF (5′-[…]-3′), US1SSR (5′-[…]-3′) and US1SS probe (5′-(FAM) […]) and the Invitrogen qRT-PCR Supermix Kit. Cycling parameters were: 50° C. for 15 minutes, 95° C. for 10 minutes, followed by 50 cycles of 95° C. for 15 seconds, and 60° C. for 1 minute. All values are the result of replicate testing over 2 independent experiments. RNA copy number was quantified by use of 10-fold serial dilutions of pBaL/wt to generate standard curves for each assay and calibrated against samples with known copy numbers from previous studies."}, "APRI and FIB-4 scores": {"test_system": "APRI and FIB-4 scores", "test": "Study 202 post-hoc APRI and FIB-4 fibrosis index scores", "assay_type": "in vivo, human", "protocol": "APRI and FIB-4 scores were calculated. Change in score category from baseline (BL) to Weeks 24 and 48 was assessed in patients with non-missing data. Correlations between changes from BL in APRI and FIB-4 scores, and MCP-1 (CCR2 ligand) and sCD14 (inflammatory biomarker) levels were evaluated."}, "CCR3": {"target": "CCR3 (Homo sapiens, UniProt P51677)", "sequence (P51677 whole entry)": "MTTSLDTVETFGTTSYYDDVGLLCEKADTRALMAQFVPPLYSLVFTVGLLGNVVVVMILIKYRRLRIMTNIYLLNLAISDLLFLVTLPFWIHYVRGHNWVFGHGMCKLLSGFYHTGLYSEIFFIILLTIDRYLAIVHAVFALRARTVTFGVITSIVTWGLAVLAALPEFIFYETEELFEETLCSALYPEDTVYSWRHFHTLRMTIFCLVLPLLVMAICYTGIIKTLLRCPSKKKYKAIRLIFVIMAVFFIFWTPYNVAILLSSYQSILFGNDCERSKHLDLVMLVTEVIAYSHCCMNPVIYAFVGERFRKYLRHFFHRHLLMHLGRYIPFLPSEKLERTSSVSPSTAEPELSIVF", "test": "Inhibition of ligand binding to CCR3"}, "[2]": {"test": "Tissue distribution in rodents", "assay_type": "in vivo"}, "[3]": {"test_system": "thioacetamide (TAA)-induced hepatic fibrosis", "test": "Rat model of thioacetamide-induced liver fibrosis and cirrhosis", "assay_type": "in vivo, Sprague-Dawley rats", "details": "for Reduction of fibrosis (collagen morphometry): weeks 0-8", "protocol": "Fibrosis was induced in male Sprague-Dawley rats by intraperitoneal administration of TAA 150 mg/kg 3 times/week for 8 weeks. […] Biochemical, gene expression and histologic evaluations of the liver were conducted."}, "[4]": {"details": "Baseline, CVC pooled 100/200 mg or EFV"}}, "data": [{"smiles": "CCCCOCCOc1ccc(-c2ccc3c(c2)/C=C(/C(=O)Nc2ccc([S@@+]([O-])Cc4cncn4CCC)cc2)CCCN3CC(C)C)cc1", "note": "[CVC, (S)-8-[4-(2-Butoxyethoxy)phenyl]-1-isobutyl-N-(4-{[(1-propyl-1H-imidazol-5-yl)methyl]sulfinyl}phenyl)-1,2,3,4-tetrahydro-1-benzazocine-5-carboxamide]", "values": [{"measurement": "Reduction of Ly6C+ monocyte-derived macrophages in liver", "setting": "[1]; CC14 and APAP models", "result": "83-84%"}, {"measurement": "Pro-inflammatory Ly6C+ monocytes in blood", "setting": "[1]; CC14 and APAP models, p<0.01", "result": "significantly reduced"}, {"measurement": "Reduction in ALT", "setting": "[1]; CVC 100 mg/kg oral", "result": 75, "unit": "%"}, {"measurement": "Reduction in necrotic area fraction", "setting": "[1]; CVC 100 mg/kg oral", "result": 61, "unit": "%"}, {"measurement": "Ly6C+ monocyte-derived macrophages in liver (% of liver leukocytes)", "setting": "[1]; CVC 100 mg/kg oral, 12h after APAP, vehicle 6.01%±0.66", "result": "0.95%±0.11"}, {"measurement": "Necrotic area fraction", "setting": "[1]; CVC 100 mg/kg oral, vehicle 27.9%±4.05", "result": "10.9%±3.50"}, {"measurement": "Monocyte accumulation in APAP-injured livers", "setting": "[1]; WT mice", "result": "significantly reducing monocyte accumulation"}, {"measurement": "Protection from liver damage (ALT levels)", "setting": "[1]; WT mice, p<0.05 for mNOX, p<0.01 for CVC", "result": "significant protection from liver damage"}, {"measurement": "p24 antigen level in culture fluids", "setting": "HIV-1 BaL; baseline 506 ng/ml", "result": 192, "unit": "ng/mL"}, {"measurement": "Viral RNA in culture fluids", "setting": "HIV-1 BaL; baseline 1.19×10^10", "result": "1.26×10^10 copies/ml"}, {"measurement": "Patients in APRI category 0.5-1.5", "setting": "APRI and FIB-4 scores; Baseline", "result": 14, "unit": "%"}, {"measurement": "Patients in APRI category >1.5", "setting": "APRI and FIB-4 scores; Baseline", "result": 2, "unit": "%"}, {"measurement": "Patients in FIB-4 category 1.45-3.25", "setting": "APRI and FIB-4 scores; Baseline", "result": 17, "unit": "%"}, {"measurement": "Patients in FIB-4 category <1.45", "setting": "APRI and FIB-4 scores; Baseline", "result": 82, "unit": "%"}, {"measurement": "Patients in FIB-4 category >3.25", "setting": "APRI and FIB-4 scores; Baseline", "result": 1, "unit": "%"}, {"measurement": "Patients in APRI category <0.5", "setting": "APRI and FIB-4 scores; [4]", "result": 84, "unit": "%"}, {"measurement": "Patients in APRI category 0.5-1.5", "setting": "APRI and FIB-4 scores; Week 24", "result": 7, "unit": "%"}, {"measurement": "Patients in APRI category <0.5", "setting": "APRI and FIB-4 scores; Week 24", "result": 93, "unit": "%"}, {"measurement": "Patients in FIB-4 category 1.45-3.25", "setting": "APRI and FIB-4 scores; Week 24", "result": 7, "unit": "%"}, {"measurement": "Patients in FIB-4 category <1.45", "setting": "APRI and FIB-4 scores; Week 24", "result": 93, "unit": "%"}, {"measurement": "Patients with APRI decreased 1 category from baseline", "setting": "APRI and FIB-4 scores; Week 24", "result": 14, "unit": "%"}, {"measurement": "Patients with FIB-4 decreased 1 category from baseline", "setting": "APRI and FIB-4 scores; Week 24", "result": 13, "unit": "%"}, {"measurement": "Patients in APRI category 0.5-1.5", "setting": "APRI and FIB-4 scores; Week 48", "result": 8, "unit": "%"}, {"measurement": "Patients in APRI category <0.5", "setting": "APRI and FIB-4 scores; Week 48", "result": 91, "unit": "%"}, {"measurement": "Patients in APRI category >1.5", "setting": "APRI and FIB-4 scores; Week 48", "result": 1, "unit": "%"}, {"measurement": "Patients in FIB-4 category 1.45-3.25", "setting": "APRI and FIB-4 scores; Week 48", "result": 5, "unit": "%"}, {"measurement": "Patients in FIB-4 category <1.45", "setting": "APRI and FIB-4 scores; Week 48", "result": 94, "unit": "%"}, {"measurement": "Patients in FIB-4 category >3.25", "setting": "APRI and FIB-4 scores; Week 48", "result": 1, "unit": "%"}, {"measurement": "Patients with APRI decreased 1 category from baseline", "setting": "APRI and FIB-4 scores; Week 48", "result": 10, "unit": "%"}, {"measurement": "Patients with FIB-4 decreased 1 category from baseline", "setting": "APRI and FIB-4 scores; Week 48", "result": 14, "unit": "%"}, {"measurement": "Subjects with improvements in APRI and FIB-4 scores over time", "setting": "APRI and FIB-4 scores; all CVC-treated subjects (pooled 100 mg and 200 mg)", "result": "≥ 10", "unit": "%"}, {"measurement": "Inhibition of ligand binding to CCR3", "setting": "CCR3", "result": "only weakly inhibited"}, {"measurement": "Tissue distribution", "setting": "[2]", "result": "high distribution in the liver, mesenteric lymph node, and intestine"}, {"measurement": "Reduction of collagen type 1 protein levels", "setting": "[3]; Group 1a: 30 mg/kg/day", "result": 30, "unit": "%"}, {"measurement": "Reduction of α-SMA", "setting": "[3]; Group 1a: 30 mg/kg/day", "result": 17, "unit": "%"}, {"measurement": "Reduction of fibrosis (collagen morphometry)", "setting": "[3]; Group 1a: 30 mg/kg/day concurrently with TAA", "result": 49, "unit": "%"}, {"measurement": "Reduction of collagen type 1 protein levels", "setting": "[3]; Group 1b: 100 mg/kg/day", "result": 12, "unit": "%"}, {"measurement": "Reduction of α-SMA", "setting": "[3]; Group 1b: 100 mg/kg/day", "result": 22, "unit": "%"}, {"measurement": "Reduction of fibrosis (collagen morphometry)", "setting": "[3]; Group 1b: 100 mg/kg/day concurrently with TAA", "result": 38, "unit": "%"}, {"measurement": "Reduction in collagen", "setting": "[3]; Group 2a: 30 mg/kg/day, weeks 4-8 (emerging fibrosis)", "result": 36, "unit": "%"}, {"measurement": "Effect on fibrogenic gene expression or fibrosis", "setting": "[3]; Group 3: weeks 8-12, cirrhosis present", "result": "no significant effect"}]}, {"smiles": "O=C1Nc2ccc(Cl)cc2[C@@](C#CC2CC2)(C(F)(F)F)O1", "note": "[EFV, efavirenz, reference compound]", "values": [{"measurement": "Patients in APRI category 0.5-1.5", "setting": "APRI and FIB-4 scores; Baseline", "result": 4, "unit": "%"}, {"measurement": "Patients in FIB-4 category <1.45", "setting": "APRI and FIB-4 scores; Baseline", "result": 100, "unit": "%"}, {"measurement": "Patients in APRI category <0.5", "setting": "APRI and FIB-4 scores; [4]", "result": 96, "unit": "%"}, {"measurement": "Patients in APRI category <0.5", "setting": "APRI and FIB-4 scores; Week 24", "result": 100, "unit": "%"}, {"measurement": "Patients in FIB-4 category <1.45", "setting": "APRI and FIB-4 scores; Week 24", "result": 100, "unit": "%"}, {"measurement": "Patients with APRI decreased 1 category from baseline", "setting": "APRI and FIB-4 scores; Week 24", "result": 5, "unit": "%"}, {"measurement": "Patients in APRI category <0.5", "setting": "APRI and FIB-4 scores; Week 48", "result": 100, "unit": "%"}, {"measurement": "Patients in FIB-4 category 1.45-3.25", "setting": "APRI and FIB-4 scores; Week 48", "result": 6, "unit": "%"}, {"measurement": "Patients in FIB-4 category <1.45", "setting": "APRI and FIB-4 scores; Week 48", "result": 94, "unit": "%"}, {"measurement": "Patients with APRI decreased 1 category from baseline", "setting": "APRI and FIB-4 scores; Week 48", "result": 6, "unit": "%"}]}]}
